According to patent publication US20250360214A1, “NON-TOXIC PHOTOSENSITIZER COMPOSITION AND TWO-COMPONENT TYPE PHOTOSENSITIZER COMPOSITION COMPRISING THE SAME” (priority 2024, published 2025):
Where a name gives a salt, the structure may show the parent alone.

What was measured:
[1] = background statement; cited from earlier work
[2] = system: RAW264.7; assay: Cytotoxicity test (MTT assay) of solvent components PEG, DMSO and HCl; assay type: cell-based; conditions: RAW264.7, MTT assay, FIG. 1
Protocol: RAW264.7 (5×10^5 cells/well in 6 well plate) was used as a cell line, and 1XDMEM (supplemented with 7% FBS and 1% antibiotics) medium (Thermo fisher scientific, 11995-065) was used.
Raw264.7 cells, which may be animal model cells, were seeded into 6 well plates containing 2 mL of DMEM medium to have an initial cell number of 5×10^5 cells/well, and then cultured in a CO2 incubator at 37° C. for 1 day under CO2 conditions. After 1 day of culture, solvent composition samples were added and cultured for an additional 2 days under the same conditions, respectively. After that, MTT assay was performed to confirm cytotoxicity.
In this case, the MTT assay method using an MTT assay kit (EZ-CYTOX-company, Dogenbio-model number: EZ-500) first prepared 5×10^5/well (total vol. 2 ml) in a 6-well plate for seeding, and then cultured for 24 h under 37° C., 5% CO2 conditions. A blank (only media) without cells was also prepared at the same time. An experimental material was treated according to conditions, and then cultured and reacted for 24 h under 37° C./5% CO2 conditions. Additionally, 200 μL Ez-cytox ( 1/10) was added to each of the wells, and reacted for 1 h. The wells were shaken gently before measuring absorbance, 200 μL thereof was then transferred to a 96-well plate, the absorbance was measured at a wavelength of 450 nm, and a viability rate was calculated according to the following equation (1).

| Compound | water solubility [1] | concentration at which no toxicity was observed [2] |
| --- | --- | --- |
| 3-[(3, 5-dimethyl-1H-pyrazole-4-yl)methyl]-3-devinylpyropheophorbide-a methyl ester [MPP100] | extremely low water solubility | – |
| C[S+](C)[O-] [DMSO, dimethylsulfoxide] | – | ≤ 2 vol % |
| Cl [HCl, hydrochloric acid] | – | ≤ 10 mN |
| polyethylene glycol [PEG] | – | ≤ 3 vol % |
